Test results: US12281102B2, “Inhibitors of APOL1 and methods of using same” (Vertex Pharmaceuticals Incorporated, priority 2020, dated 2025)
Like-named read-outs stand apart in the source and are kept apart here.

Biological target: T1, G1 APOL1 (Homo sapiens, UniProt O14791, I384M/S342G)
T1 construct: expressed in transfected cells
T1 sequence (O14791 28-398 S342G/I384M): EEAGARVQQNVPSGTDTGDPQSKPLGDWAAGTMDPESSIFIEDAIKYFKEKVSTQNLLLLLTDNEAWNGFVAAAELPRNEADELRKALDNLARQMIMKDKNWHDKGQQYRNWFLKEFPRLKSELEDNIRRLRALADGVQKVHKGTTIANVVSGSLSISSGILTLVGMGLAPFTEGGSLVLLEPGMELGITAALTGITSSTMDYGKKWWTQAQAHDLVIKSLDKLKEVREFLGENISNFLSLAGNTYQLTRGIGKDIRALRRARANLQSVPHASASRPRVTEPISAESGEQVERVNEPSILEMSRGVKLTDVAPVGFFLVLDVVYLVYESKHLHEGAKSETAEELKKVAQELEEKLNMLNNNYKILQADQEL
Experiment: Acute APOL1 Thallium Assay with inducible stable clones of HEK 293 cells
Type: cell-based
Details: HEK 293 T-Rex inducible stable clone expressing G1 APOL1
Procedure, shortened: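 APOL1 pore function was measured as thallium influx, detected by a Tl+-sensitive fluorescent dye loaded as AM ester, on a FLIPR Tetra after Tl+ addition. Cells were HEK T-Rex G1 APOL1 clone DC3.25, 26,000 per well, induced with tetracycline at plating in Opti-MEM assay medium.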

[1] = read-out: Thallium Assay (IC50)

| IC50 [1] | SMILES | IC50 (Thallium Assay (IC50)) |
| --- | --- | --- |
| > 1000 nM | CN1CC(NS(=O)(=O)NC[C@H]2C[C@H](c3c(-c4ccc(F)cc4)[nH]c4c(F)cc(F)cc43)C2)CC1=O (some centres unmarked) [Compound 336] | – |
| > 1000 nM | O=C1CC(C(=O)NC2CC(Cc3c(-c4ccc(F)cc4)[nH]c4c(F)cc(F)cc34)C2)C(=O)N1 (centres unmarked) [Compound 167] | – |
| > 1000 nM | Cn1cnc(CNS(=O)(=O)NC[C@H]2C[C@H](c3c(-c4ccc(F)cc4)[nH]c4c(F)cc(F)cc43)C2)c1 [Compound 367] | – |
| > 1000 nM | O=C(CN1CCCC1)N[C@H]1C[C@H](c2c(-c3ccc(F)cc3)[nH]c3c(F)cc(F)cc32)C1 [Compound 112] | – |
| > 1000 nM | C[C@@H](O)[C@@H](CO)NCC1CC(c2c(-c3ccc(F)cc3)[nH]c3c(F)cc(F)cc23)C1 (some centres unmarked) [Compound 408] | – |
| 250 to 1000 nM | O=C(NC[C@H]1C[C@@H](c2c(-c3ccc(F)cc3)[nH]c3c(F)cc(F)cc32)C1)C1CCO1 (some centres unmarked) [Compound 220] | – |
| > 1000 nM | O=C1CC(C(=O)NC[C@H]2C[C@H](c3c(-c4ccc(F)cc4)[nH]c4c(F)cc(F)cc43)C2)C(=O)N1 (some centres unmarked) [Compound 287] | – |
| > 1000 nM | O=C1CCC(C(=O)NC[C@H]2C[C@@H](c3c(-c4ccc(F)cc4)[nH]c4c(F)cc(F)cc43)C2)CN1 (some centres unmarked) [Compound 328] | – |
| 250 to 1000 nM | O=S(=O)(NCCc1cn[nH]c1)NC[C@H]1C[C@H](c2c(-c3ccc(F)cc3)[nH]c3c(F)cc(F)cc32)C1 [Compound 369] | – |
| < 250 nM | N[C@@H](CO)C(=O)NC[C@H]1C[C@H](c2c(-c3ccc(F)cc3)[nH]c3c(F)cc(F)cc32)C1 [Compound 194] | – |
| > 1000 nM | O=C(CCN1CCCC1)N[C@H]1C[C@H](c2c(-c3ccc(F)cc3)[nH]c3c(F)cc(F)cc32)C1 [Compound 109] | – |
| 250 to 1000 nM | CC(C)C(O)C(=O)N[C@H]1C[C@H](c2c(-c3ccc(F)cc3)[nH]c3c(F)cc(F)cc32)C1 (some centres unmarked) [Compound 93] | – |
| > 1000 nM | O=C1CC(C(=O)NC[C@H]2C[C@@H](c3c(-c4ccc(F)cc4)[nH]c4c(F)cc(F)cc43)C2)CN1 (some centres unmarked) [Compound 294] | – |
| 250 to 1000 nM | O=C1NCCC1NCC1CC(c2c(-c3ccc(F)cc3)[nH]c3c(F)cc(F)cc23)C1 (centres unmarked) [Compound 386] | – |
| > 1000 nM | CN(C)CCC(=O)N[C@H]1C[C@H](c2c(-c3ccc(F)cc3)[nH]c3c(F)cc(F)cc32)C1 [Compound 122] | – |
| > 1000 nM | Cc1nccn1CC(=O)N[C@H]1C[C@@H](c2c(-c3ccc(F)cc3)[nH]c3c(F)cc(F)cc32)C1 [Compound 63] | – |
| > 1000 nM | O=C(NC1CC(c2c(-c3ccc(F)cc3)[nH]c3c(F)cc(F)cc23)C1)OCc1ccccc1 (centres unmarked) [Compound 13, benzyl N-[3-[5,7-difluoro-2-(4-fluorophenyl)-1H-indol-3-yl]cyclobutyl]carbamate] | – |
| > 1000 nM | O=C(Cn1cnnc1)N[C@H]1C[C@@H](c2c(-c3ccc(F)cc3)[nH]c3c(F)cc(F)cc32)C1 [Compound 33] | – |
| > 1000 nM | O=C1CC(C(=O)N[C@H]2C[C@@H](c3c(-c4ccc(F)cc4)[nH]c4c(F)cc(F)cc43)C2)C(=O)N1 (some centres unmarked) [Compound 65] | – |

The next lines start with the compound.

| SMILES | IC50 [1] | IC50 (Thallium Assay (IC50)) |
| --- | --- | --- |
| O=C1NCC[C@H]1NS(=O)(=O)NC[C@H]1C[C@H](c2c(-c3ccc(F)cc3)[nH]c3c(F)cc(F)cc32)C1 [Compound 332, (3R)-3-[[3-[5,7-difluoro-2-(4-fluorophenyl)-1H-indol-3-yl]cyclobutyl]methylsulfamoylamino]pyrrolidin-2-one] | > 1000 nM | – |
| CC(C(=O)N[C@H]1C[C@@H](c2c(-c3ccc(F)cc3)[nH]c3c(F)cc(F)cc32)C1)n1ccnc1 (mixture of isomers) [Compound 40] | > 1000 nM | – |
| O=S(=O)(N[C@H]1C[C@@H](c2c(-c3ccc(F)cc3)[nH]c3c(F)cc(F)cc32)C1)c1cn[nH]c1 [Compound 84] | > 1000 nM | – |
| O=C1NCC(C(=O)NC[C@H]2C[C@H](c3c(-c4ccc(F)cc4)[nH]c4c(F)cc(F)cc43)C2)O1 (some centres unmarked) [Compound 269] | > 1000 nM | – |
| CC(C)S(=O)(=O)N[C@H]1C[C@H](c2c(-c3ccc(F)cc3)[nH]c3c(F)cc(F)cc32)C1 [Compound 149] | 250 to 1000 nM | – |
| CC1(CO)CCN1S(=O)(=O)NC[C@H]1C[C@H](c2c(-c3ccc(F)cc3)[nH]c3c(F)cc(F)cc32)C1 (mixture of isomers) [Compound 364] | > 1000 nM | – |
| CC(C)(CO)NCC1CC(c2c(-c3ccc(F)cc3)[nH]c3c(F)cc(F)cc23)C1 (centres unmarked) [Compound 407] | > 1000 nM | – |
| CC[C@@H](NC(=O)OC(C)(C)C)C(=O)NC[C@H]1C[C@H](c2c(-c3ccc(F)cc3)[nH]c3c(F)cc(F)cc32)C1 [Compound 331] | > 1000 nM | – |
| OCCNC1CC(c2c(-c3ccc(F)cc3)[nH]c3c(F)cc(F)cc23)C1 (centres unmarked) [Compound 25] | 250 to 1000 nM | – |
| CC(C)(C)OC(=O)N1CC[C@@H]1C(=O)NC[C@H]1C[C@H](c2c(-c3ccc(F)cc3)[nH]c3c(F)cc(F)cc32)C1 [Compound 310] | – | > 1000 nM |
| CC(C)(C)OC(=O)N1C[C@@H](O)C[C@H]1C(=O)NC[C@H]1C[C@H](c2c(-c3ccc(F)cc3)[nH]c3c(F)cc(F)cc32)C1 [Compound 252] | > 1000 nM | – |
| O=C(CC1CC(=O)NC(=O)C1)NC[C@H]1C[C@@H](c2c(-c3ccc(F)cc3)[nH]c3c(F)cc(F)cc32)C1 [Compound 285] | > 1000 nM | – |
| O=C(CN1CCCC1)N[C@H]1C[C@@H](c2c(-c3ccc(F)cc3)[nH]c3c(F)cc(F)cc32)C1 [Compound 46] | > 1000 nM | – |
| O=C(NC[C@H]1C[C@@H](c2c(-c3ccc(F)cc3)[nH]c3c(F)cc(F)cc32)C1)C(O)C1CC1 (some centres unmarked) [Compound 247] | > 1000 nM | – |
| COCCC(=O)N[C@H]1C[C@@H](c2c(-c3ccc(F)cc3)[nH]c3c(F)cc(F)cc32)C1 [Compound 62] | > 1000 nM | – |
| NC(=O)CNC(=O)C1CC(Cc2c(-c3ccc(F)cc3)[nH]c3c(F)cc(F)cc23)C1 (centres unmarked) [Compound 449, N-(2-amino-2-oxoethyl)-3-((5,7-difluoro-2-(4-fluorophenyl)-1H-indol-3-yl)methyl)cyclobutane-1-carboxamide] | > 1000 nM | – |
| Cc1[nH]cnc1CCNS(=O)(=O)NC[C@H]1C[C@H](c2c(-c3ccc(F)cc3)[nH]c3c(F)cc(F)cc32)C1 [Compound 334] | > 1000 nM | – |
| O=S(=O)(NC[C@H]1C[C@H](c2c(-c3ccc(F)cc3)[nH]c3c(F)cc(F)cc32)C1)N[C@H]1C[C@H](O)C1 [Compound 344] | > 1000 nM | – |
| O=c1[nH]c2ccc(S(=O)(=O)NC[C@H]3C[C@H](c4c(-c5ccc(F)cc5)[nH]c5c(F)cc(F)cc54)C3)cc2[nH]1 [Compound 418] | > 1000 nM | – |

| SMILES | IC50 [1] | IC50 (Thallium Assay (IC50)) |
| --- | --- | --- |
| O=C1CC(NCC2CC(c3c(-c4ccc(F)cc4)[nH]c4c(F)cc(F)cc34)C2)CN1 (centres unmarked) [Compound 410] | > 1000 nM | – |
| N#CCS(=O)(=O)N[C@H]1C[C@@H](c2c(-c3ccc(F)cc3)[nH]c3c(F)cc(F)cc32)C1 [Compound 87] | > 1000 nM | – |
| CN(CC(=O)N[C@H]1C[C@H](c2c(-c3ccc(F)cc3)[nH]c3c(F)cc(F)cc32)C1)S(C)(=O)=O [Compound 103] | > 1000 nM | – |
| CC(NC(=O)O[C@H]1C[C@H](c2c(-c3ccc(F)cc3)[nH]c3c(F)cc(F)cc32)C1)C(N)=O (mixture of isomers) [Compound 456, [3-[5,7-difluoro-2-(4-fluorophenyl)-1H-indol-3-yl]cyclobutyl]N-(2-amino-1-methyl-2-oxo-ethyl)carbamate] | > 1000 nM | – |
| CC(NS(C)(=O)=O)C(=O)N[C@H]1C[C@@H](c2c(-c3ccc(F)cc3)[nH]c3c(F)cc(F)cc32)C1 (mixture of isomers) [Compound 55] | > 1000 nM | – |
| C[C@H](N)C(=O)NC[C@H]1C[C@H](c2c(-c3ccc(F)cc3)[nH]c3c(F)cc(F)cc32)C1 [Compound 189, (S)-2-amino-N-(((1r,3S)-3-(5,7-difluoro-2-(4-fluorophenyl)-1H-indol-3-yl)cyclobutyl)methyl)propanamide] | < 250 nM | – |
| CN(CC(=O)N[C@H]1C[C@@H](c2c(-c3ccc(F)cc3)[nH]c3c(F)cc(F)cc32)C1)S(C)(=O)=O [Compound 38] | > 1000 nM | – |
| O=C1C[C@@H](C(=O)NC[C@H]2C[C@@H](c3c(-c4ccc(F)cc4)[nH]c4c(F)cc(F)cc43)C2)N1 [Compound 241] | > 1000 nM | – |
| O=c1[nH]c2ccc(S(=O)(=O)N[C@H]3C[C@H](c4c(-c5ccc(F)cc5)[nH]c5c(F)cc(F)cc54)C3)cc2[nH]1 [Compound 153] | > 1000 nM | – |
| CC(C)(C)OC(=O)NCC(=O)N[C@H]1C[C@@H](c2c(-c3ccc(F)cc3)[nH]c3c(F)cc(F)cc32)C1 [Compound 78] | > 1000 nM | – |
| O=C(NC[C@H]1C[C@@H](c2c(-c3ccc(F)cc3)[nH]c3c(F)cc(F)cc32)C1)C(F)F [Compound 219] | 250 to 1000 nM | – |
| CC(C)(C)OC(=O)NCCNCC1CC(c2c(-c3ccc(F)cc3)[nH]c3c(F)cc(F)cc23)C1 (centres unmarked) [Compound 401] | > 1000 nM | – |
| CC(F)(F)C(=O)NC[C@H]1C[C@@H](c2c(-c3ccc(F)cc3)[nH]c3c(F)cc(F)cc32)C1 [Compound 266] | > 1000 nM | – |
| O=C(N[C@H]1C[C@H](c2c(-c3ccc(F)cc3)[nH]c3c(F)cc(F)cc32)C1)OCc1ccccc1 [Compound 88] | > 1000 nM | – |
| O=C1CCC(NCC2CC(c3c(-c4ccc(F)cc4)[nH]c4c(F)cc(F)cc34)C2)C(=O)N1 (centres unmarked) [Compound 382] | 250 to 1000 nM | – |
| Fc1ccc(-c2[nH]c3c(F)cc(F)cc3c2C2CC(CNCC3COC3)C2)cc1 (centres unmarked) [Compound 405] | > 1000 nM | – |
| C[C@H](O)C(=O)NC[C@H]1C[C@H](c2c(-c3ccc(F)cc3)[nH]c3c(F)cc(F)cc32)C1 [Compound 207] | 250 to 1000 nM | – |
| O=C(CC1CS(=O)(=O)C1)N[C@H]1C[C@H](c2c(-c3ccc(F)cc3)[nH]c3c(F)cc(F)cc32)C1 [Compound 101] | > 1000 nM | – |
